Reference: patent publication US8993634B2, “Methods and use of compounds that bind to Her2/neu receptor complex” (The Trustees Of The University Of Pennsylvania, priority 2010, dated 2015)

Legend:
T6-17 cells = experiment: Anchorage-independent growth (soft agar colony) screening, T6-17 cells; format: cell-based, murine; conditions: p<0.05, FIG. 1
Procedure: (§1) Targeted molecules were screened in vitro for anti-tumor activity using a modified […] growth of transformed cell assay, as described in Fukazawa et al. (1995), Anal. Biochem., 10:83-90. Anchorage-independent growth capability is perhaps the best indicator of the malignant phenotype and is determined by efficiency of cells to form colonies in soft agar (Drebin, et al., 1985). All experiments were conducted in 6 cm dishes in triplicate. Agar bottom layers consisted of 3 ml 0.25% agarose/DMEM (Dulbecco's Modified Eagle Medium) supplemented with 10% FBS (Fetal Bovine Serum), 2 mM L-glutamine, and 100μ/ml Penicillin/1 μg/ml Streptomycin. About 1000-2000 cells T6-17/SK-BR-3 are layered on the top in 1 ml 0.18% agarose/DMEM, 10% FBS, 2 mM L-glutamine, and 100 u/ml Penicillin/i 1 μg/ml Streptomycin. Cultures were treated every 3 days with 0.5 ml of supplemented DMEM containing measured amounts of the Her2 inhibitors, or DMSO (dimethyl sulfoxide) alone. On the day before the colonies were counted, the samples were incubated with 1 ml of Hank's Balanced Salt Solution containing 1 mg/ml p-iodonitrotetrazolium violet (INT, Sigma) to stain colonies. The next day, colonies were counted using a 7× achromatic magnifying eyepiece (Bausch and Lomb). Triplicate cultures were counted on day 21 and will be verified by at least two different persons. […]

SK-BR-3 cells = experiment: Anchorage-independent growth (soft agar colony) screening, SK-BR-3 cells; format: cell-based, human; conditions: p<0.05, FIG. 1
Procedure: as §1

CC(C)(C#Cc1cc(C(F)(F)F)cc(C(F)(F)F)c1)NC(=S)Nc1cccc(F)c1 [S22—04]
cellular growth in culture (colonies in soft agar) (T6-17 cells): reduced cellular growth in culture | cellular growth in culture (colonies in soft agar) (SK-BR-3 cells): reduced cellular growth in culture
